Source: publication PMC9236248, “Ucl fimbriae regulation and glycan receptor specificity contribute to gut colonisation by extra-intestinal pathogenic Escherichia coli” (PLoS Pathogens, 2022)
Several values for one entry are separate records, joined by “and”; a condition that tells them apart may be missing. Identical values can stand only once.

Experiments:
UcaD^LD = UcaD^LD (Proteus mirabilis, UniProt B4EV65); assay: Soaking of pre-formed UcaD^LD crystals with monosaccharides (X-ray crystallography); assay type: binding, P. mirabilis PM54; details: 0.1-0.2 M monosaccharide, 48 hours soak
UcaD^LD, sequence (B4EV65 entry or part of it): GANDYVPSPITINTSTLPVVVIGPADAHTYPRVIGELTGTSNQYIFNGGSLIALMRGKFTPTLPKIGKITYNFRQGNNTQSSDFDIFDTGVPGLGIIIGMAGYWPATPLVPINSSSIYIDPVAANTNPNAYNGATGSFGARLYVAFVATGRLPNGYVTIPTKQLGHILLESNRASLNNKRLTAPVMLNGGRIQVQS
Method: Crystals were produced by the hanging drop method. Structural analyses were carried out using DALI [22], and PyMOL (http://www.pymol.org). Figures were generated using PyMOL. The UclD^LD structure was refined to final Rwork/Rfree values of 24.8%/30.6%; the UcaD^LD structure was refined to final Rwork/Rfree values of 16.9%/19.2%, respectively (Table A in S1 Text). For UcaD^LD:monosaccharide complexes, coordinates and structure factors have been deposited in the PDB with IDs 7MZQ (Fuc complex), 7MZR (Glc complex), and 7MZS (Gal complex).
157 flash-cooling in liquid nitrogen. X-ray diffraction data were collected from a single crystal at the
158 Australian Synchrotron MX2 beamline, using a wavelength of 0.9537 Å. Data collection was
159 performed using Blu-Ice software, indexed and integrated using MOSFLM and scaled with
160 AIMLESS within the CCP4 suite. The structure was solved by molecular replacement using
161 PHASER [23] and UclDLD as the template. The model was refined using Phenix and structure
The structure was refined to final Rwork/Rfree values
163 of 16.9 %/19.2 %, respectively (Table A in S1 Text). The final UcaDLD model contains residues 21-
165 disordered or flexible conformation in the crystals. Coordinates and structure factors have been
166 deposited in the PDB with ID 7MZO.
167 UcaDLD:monosaccharide complexes: Pre-formed UcaDLD and UclDLD crystals were soaked with
168 0.1-0.2 M of the monosaccharides Fuc, Glc, Gal, GlcNAc, GalNAc or Neu5Ac for 48 hours in the
169 crystallisation solution (0.1 M sodium citrate buffer pH 4.5-5.5, 2-3 M NaCl). The crystals were
170 cryoprotected in Paratone-N and flash-cooled at 100 K. X-ray diffraction data were collected from
171 single crystals on the MX2 beamline at the Australian Synchrotron, using a wavelength of 0.9537 Å.
172 The data-sets was processed using either MOSFLM (Gal complex), or XDS (Fuc and Glc complexes)
173 [27] and scaled using AIMLESS in the CCP4 suite. The structures were solved by molecular
174 replacement using PHASER [23] and ligand-free UcaDLD as the template. The models were refined
175 using Phenix, and structure validations were performed using MolProbity. Coordinates and
176 structure factors have been deposited in the PDB with IDs 7MZQ (Fuc complex), 7MZR (Glc
177 complex), and 7MZS (Gal complex).

OxyR-6xHis = biological target: T1, OxyR-6xHis (UniProt P0ACQ4); assay: EMSA
T1 sequence: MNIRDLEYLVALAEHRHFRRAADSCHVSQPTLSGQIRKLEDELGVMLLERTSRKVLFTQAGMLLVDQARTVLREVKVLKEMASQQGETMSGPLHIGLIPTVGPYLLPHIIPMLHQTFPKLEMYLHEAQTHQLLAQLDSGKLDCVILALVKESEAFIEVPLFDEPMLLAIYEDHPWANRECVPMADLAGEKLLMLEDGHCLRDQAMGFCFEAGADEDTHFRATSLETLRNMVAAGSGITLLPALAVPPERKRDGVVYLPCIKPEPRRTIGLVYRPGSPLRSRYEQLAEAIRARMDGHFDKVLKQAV

UclD^LD [1] = biological target: T2, UclD^LD (Escherichia coli, UniProt Q8GA71); assay: SPR analysis of glycans on immobilized UclD lectin domain; design: species or system E. coli strain F11; details: single cycle kinetics, read-out: KD, binding affinity to UclD^LD determined by SPR
T2 sequence (Q8GA71 21-221): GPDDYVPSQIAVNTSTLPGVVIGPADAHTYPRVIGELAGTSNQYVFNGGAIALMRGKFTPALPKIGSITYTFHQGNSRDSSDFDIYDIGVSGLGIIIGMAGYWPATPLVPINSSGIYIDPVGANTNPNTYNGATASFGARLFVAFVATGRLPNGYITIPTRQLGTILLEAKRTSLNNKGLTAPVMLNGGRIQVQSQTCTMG
Method: 126 described with minor modifications. Briefly, UclD and UcaD were immobilized onto flow cells
127 of a CM5 sensor chip using amine coupling at 20 µg/mL in 10 mM sodium acetate pH 4.0 and at a
128 flow rate of 5 µL/min for 10 minutes. Glycans were chosen based on positive glycan array results for
129 each of the proteins with each glycan run across a dilution range starting at a maximum concentration
130 of 100 µM and minimum concentrations tested being 1.6 nM using single cycle kinetics. Results were
131 analysed using the Biacore T200 evaluation software.
132 Crystallization and crystal structure determination.
133 UclDLD: UclDLD crystals were produced using the hanging drop method, with drops containing 1 µL
134 of protein (10 mg/mL) and 1 µL of well solution (20-25% w/v PEG 3350, 0.1 M Bis-Tris propane
135 pH 6.5, 0.2 M sodium iodide). The crystals appeared within 1-5 days. The crystals were cryoprotected
136 in glycerol (80% well solution and 20% (v/v) glycerol) before flash-cooling in liquid nitrogen. X-ray
137 diffraction data were collected from a single crystal at the Australian Synchrotron MX1 beamline,
138 using a wavelength of 0.9537 Å. Data collection was performed using Blu -Ice software, indexed
139 and integrated using MOSFLM and scaled with AIMLESS within the CCP4 suite. Molecular […]
142 we determined the UclDLD structure by SAD phasing using the CRANK2 [19] pipeline of the CCP4 […]

UclD^LD [2] = biological target: T2, UclD^LD; assay: Glycan array analysis (358 glycan structures), UclD; details: yes/no binding
UclD = details: galactose at 1 mM alone

Molecule	Monosaccharide electron density / binding in soaked UcaD^LD crystals (UcaD^LD)	also measured
OC[C@H]1OC(O)[C@H](O)[C@@H](O)[C@@H]1O (some centres unmarked) [Glc, glucose]	Clear monosaccharide electron density was observed	–
CO[C@@H]1O[C@H](CO)[C@H](O)[C@H](O)[C@H]1O [β-methyl-galactose]	did not observe binding	–
AATAGGTCGCTCATTTCAGGGTAAAGCATATCTTTTGTCATTACCAACACAATAAATATGGTTTTTGATCGTTTTTCCCGATCGTTTTAGCAATCATGATATGTGCAATCTATCATACGCTGGTTATCGATCGGTAAAAACATTTTGAAAATGATTGTTTTGTTGGGGATGATTGCTGAACAAATGATCAATACTGGAATTAAACAGGAATTCATTTTATGAAAATAAAAGTTATAGCATTGGCTACATTTGTTTCTGCTG (double strand) [Cy3-Pucl-78T]	–	binding (OxyR-6xHis): binds
CC(=O)N[C@H]1[C@H]([C@H](O)[C@H](O)CO)O[C@@](O[C@H]2[C@@H](O)[C@@H](CO)O[C@@H](O[C@@H]([C@H](O[C@@H]3O[C@@H](C)[C@@H](O)[C@@H](O)[C@@H]3O)[C@H](C=O)NC(C)=O)[C@H](O)CO)[C@@H]2O)(C(=O)O)C[C@@H]1O [SialylLewis X, Neu5Acα2-3Galβ1-4(Fucα1–3)GlcNAc]	–	Kd (UclD^LD [1]): 2520 nM
CC(=O)N[C@@H]1[C@@H](O)[C@H](O)[C@@H](CO)O[C@H]1O [GlcNAc, N-acetylglucosamine]	not	–
CC(=O)N[C@H]1[C@H]([C@H](O)[C@H](O)CO)OC(O)(C(=O)O)C[C@@H]1O (some centres unmarked) [Neu5Ac, N-acetylneuraminic acid]	not	–
lactosyl ceramide	–	Binding to UclD^LD on glycan array (UclD^LD [2]): did not identify interactions
O=C[C@H](O)[C@@H](O)[C@@H](O)[C@H](O)CO [galactose]	Clear monosaccharide electron density was observed	Response 15 seconds after injection-B (UclD): 6.3 RU and ~ 6.3 RU
asialo-GM1	–	Binding to UclD^LD on glycan array (UclD^LD [2]): did not identify interactions
C[C@H](O)[C@@H](O)[C@@H](O)[C@H](O)C=O [Fuc, fucose]	Clear monosaccharide electron density was observed	–
